Test system: T1, lipase from Aspergillus niger (LAN)
T1 construct: gene lipA; commercial Sigma-Aldrich lipase preparation from Aspergillus niger, free (not immobilized)
Experiment: p-nitrophenol release at […] nm, Hanes-Woolf plot
Type: biochemical
Settings: free enzyme, 30 °C, 2 min, 1000 rpm; substrate solution range printed as 0.005–1.5 M; apparent

Km: 580 ± 20 µM
Structure (SMILES): CCCCCCCCCCCCCCCC(=O)Oc1ccc([N+](=O)[O-])cc1 [p-nitrophenyl palmitate]

— article PMC9068721, “Evaluation of MxOy/fucoidan hybrid system and their application in lipase immobilization process” (Scientific Reports, 2022)
